The subject of assay [1] is Male Wistar rats. Kind of assay: Acute activity after single p.o. administration, paw withdrawal test (Randall and Selitto), % of analgesia. It is filed as in vivo, rat. To be noted: for analgesic activity on separate administration (oxycodone study): oxycodone 5 mg/kg; for analgesic activity on separate administration (tramadol study): tramadol 125 mg/kg. As to the method:
(§1) Male Wistar rats (250-300 g) were housed in a room maintained at a temperature of 20±2° C. under 12 h-12 h light-dark cycles. The animals had free access to food and water. Experimental groups consisted of six rats.
(§2) Drugs • Morphine at a dose of 15 mg/kg, codeine at a dose of 175 mg/kg, tramadol at a dose of 125 mg/kg and oxycodone at a dose of 5 mg/kg were dissolved in distilled water; • Dihydrocodeine at a dose of 50 mg/kg was suspended in 1% solution of methylcellulose; • Magnesium lactate (in micronized form)—at a dose of 15 mg magnesium ions/kg (150 mg of magnesium lactate/kg) was suspended in 0.5% solution of methylcellulose; • Magnesium lactate in normal (non-micronized) form—at doses of 15 or 30 mg magnesium ions/kg (150 or 300 mg of magnesium lactate/kg, respectively) was suspended in 0.5% solution of methylcellulose; • Magnesium citrate (in micronized and normal form)—at a dose of 15 mg magnesium ions/kg (112 mg of magnesium citrate/kg) was dissolved in distilled water; • Magnesium hydroaspartate (in micronized and normal form)—at a dose of 15 mg magnesium ions/kg (216 mg of magnesium hydroaspartate/kg) was suspended in 0.5% solution of methylcellulose; • Magnesium chloride (in micronized and normal form)—at a dose of 15 mg magnesium ions/kg (59.5 mg of magnesium chloride/kg) was dissolved in distilled water; • Control animals received a 0.5% solution of methylcellulose, a 1% solution of methylcellulose and distilled water, respectively, according to the same time schedule.
Magnesium salts and investigated opioids were administered concomitantly.
The micronized form of magnesium salts used in experiments contains particles of magnesium compounds of size D90<50 μm.
The normal magnesium salts form used in experiments contains particles of sizes commonly available in the market.
Acute activity of investigated drugs was measured in short time periods (from 5 to 300 min) after single administration.
(§3) All drugs were administered per os (p.o.); literally—orally. However, in practice, drugs were administered intragastric via a gastric tube.
(§4) Changes in pain thresholds were determined using a mechanical stimuli—the modification of the classic paw withdrawal test described by Randall and Selitto [1957]. In order to produce mechanical stimulation, progressively increasing pressure was applied to the dorsal surface of the rat's paw using an analgesymeter. The instrument used increased the force on the paw at a rate of 32 grams per second. The nociceptive threshold was defined as force in grams, at which the rat attempted to withdraw its right hindpaw and values of pressure were recorded at this very moment. At least two observers controlled the response.
(§5) Nociceptive thresholds (average of two trials) measured for each animal before single administration of investigated drugs (measurement of acute activity) or in day 0 before the first administration (measurement of prolonged activity) constituted the baseline pain threshold—A. Next, measurements of the withdrawal threshold to mechanical stimuli were performed at 5, 15, 30, 60, 90, 120, 180, 240, 300 min after drug administration (measurements of acute activity) or every day before drug administration (measurements of prolonged activity)—B.
(§6) In all experimental sessions (i.e. every day, each drug investigated) values of thresholds obtained (B) were compared to baseline (A).
(§7) Changes in pain threshold were calculated as a percent of baseline value according to the following formula:
(§8) [formula] • C—% of analgesia; A—pressure (in g), baseline pain threshold; B—pressure (in g) in consecutive measurements.
(§9) Percents of analgesia values calculated as above for individual animals were subsequently used to calculate average values in particular experimental groups and for statistical analysis.
The results are expressed as mean values±standard deviation of the mean (±S.E.M.).

The test system of assay [2] is Male Wistar rats. Kind of assay: Prolonged activity on repeated daily p.o. administration (7 or 10 days), paw withdrawal test (Randall and Selitto). It is filed as in vivo, rat. To be noted: for analgesic activity on separate administration, 7 days (oxycodone study): oxycodone 5 mg/kg; for pain threshold on separate administration, 10 days (tramadol study): tramadol 125 mg/kg. As to the method:
as §1, §2
Prolonged activity of the investigated drugs was measured the following day after initial administration, but before the next administration as well as after cessation of administration. Drugs were administered for seven consecutive days (administration of morphine, codeine, dihydrocodeine, oxycodone) or for ten days (administration of tramadol).
as §3, §4, §5, §6, §7, §8, §9
The results are expressed as mean values±standard […] of the mean (±S.E.M.). The statistical significance of differences between groups was evaluated by Student's t-test. p≦0.05 was accepted as statistically significant.

[3] abbreviates: single administration, 15 mg magnesium ions/kg p.o. with dihydrocodeine 50 mg/kg p.o.
Setting [4] is: single administration, 15 mg magnesium ions/kg p.o. with morphine 15 mg/kg p.o.
Where [5] appears, read: single administration, 15 mg magnesium ions/kg p.o. with oxycodone 5 mg/kg p.o.
Where [6] appears, read: single administration, 15 mg magnesium ions/kg p.o. with tramadol 125 mg/kg p.o.
Where [7] appears, read: single separate administration p.o., magnesium salts 15 mg magnesium ions/kg.
[8] abbreviates: 30 mg magnesium ions/kg p.o. with codeine 175 mg/kg p.o., 7 days.
[9] abbreviates: 30 mg magnesium ions/kg p.o. with morphine 15 mg/kg p.o., 7 days.
Where [10] appears, read: separate administration p.o., magnesium lactate micronized 15 or normal 30 mg magnesium ions/kg.

Take `CC(O)C(=O)[O-].CC(O)C(=O)[O-].[Mg+2]` (stereo not shown) [normal magnesium lactate, Magnesium lactate]: the “effect on analgesic activity of codeine” value in assay [1] (single administration, 15 mg magnesium ions/kg p.o. with codeine 175 mg/kg p.o.) is listed as “significantly enhanced the analgesic activity of codeine”. Also, in assay [1] (setting [3]), the “activity on dihydrocodeine analgesia in comparison (to micronized form / to magnesium lactate)” value was “somewhat weaker”; the “effect on dihydrocodeine analgesia” value is on record as “significantly enhanced dihydrocodeine analgesia”; the “time course of activity on dihydrocodeine analgesia” value is “gradually increased and reached a maximum between min 45 and 90 of the measurements and then became weaker by min 210”. In addition, in assay [1] (setting [4]), the “effect on morphine analgesia” value is recorded as “significantly enhanced morphine analgesia”, the “enhancement of morphine analgesia lasted up to” value worked out at 180 min and the “time at which enhancement of morphine analgesia appeared” value turned out to be 60 min. Besides, in assay [1] (setting [5]), the “effect on oxycodone analgesia” value is reported as “significantly enhanced oxycodone analgesia”; the “time at which activity on oxycodone analgesia appeared” value amounted to 5 min; the “time course of activity on oxycodone analgesia” value was “weakened by min 15 and 30 and was maintained up to min 45”. Moreover, in assay [1] (setting [6]), the “activity on tramadol analgesia in comparison (to micronized form / to magnesium chloride)” value is recorded as “weaker than the micronized form” and the “effect on antinociceptive activity of tramadol” value was “increased antynociceptive activity of tramadol”. Further, the “analgesic activity on separate administration (codeine study)” value in assay [1] (single separate administration p.o., codeine 175 mg/kg, magnesium salts 15 mg magnesium ions/kg) is recorded as “did not exhibit analgesic activity”. The “analgesic activity / pain perception threshold on separate administration (dihydrocodeine study)” value in assay [1] (single separate administration p.o., dihydrocodeine 50 mg/kg, magnesium salts 15 mg magnesium ions/kg) is listed as “did not exhibit analgesic activity”. Besides, the “analgesic activity / pain threshold when administered alone (morphine study)” value in assay [1] (single separate administration p.o., morphine 15 mg/kg, magnesium salts 15 mg magnesium ions/kg) is “Neither morphine nor magnesium lactate and chloride in micronized or normal form administered alone showed analgesic activity”. Also, in assay [1] (setting [7]), the “analgesic activity on separate administration (oxycodone study)” value is on record as “showed no analgesic activity” and the “analgesic activity on separate administration (tramadol study)” value is recorded as “did not exhibit analgesic activity”. In assay [2] (setting [8]), the “activity on codeine analgesia compared to micronized form” value is given as “significantly weaker”; the “days on which activity on codeine analgesia appeared” value was “only appeared on days 6 and 7”. The “activity on dihydrocodeine analgesia compared to micronized form” value in assay [2] (30 mg magnesium ions/kg p.o. with dihydrocodeine 50 mg/kg p.o., 7 days) is on record as “significantly weaker in comparison to the micronized form”. In addition, in assay [2] (setting [9]), the “activity on morphine analgesia compared to micronized form” value was “much weaker”; the “days on which activity on morphine analgesia appeared” value is “only on days 6 and 7”. For the same compound, in assay [2] (separate administration p.o., codeine 175 mg/kg, magnesium lactate micronized 15 or normal 30 mg magnesium ions/kg), the “analgesic activity on separate administration, 7 days (codeine study)” value is reported as “did not exhibit analgesic activity”. The “pain threshold on separate administration, 7 days (dihydrocodeine study)” value in assay [2] (separate administration p.o., dihydrocodeine 50 mg/kg, magnesium lactate micronized 15 or normal 30 mg magnesium ions/kg) is reported as “did not alter the pain threshold”. Besides, the “pain threshold on separate administration, 7 days (morphine study)” value in assay [2] (separate administration p.o., morphine 15 mg/kg, magnesium lactate micronized 15 or normal 30 mg magnesium ions/kg) was “did not alter the pain threshold”. Moreover, in assay [2] (setting [10]), the “analgesic activity on separate administration, 7 days (oxycodone study)” value is “did not exhibit analgesic activity” and the “pain threshold on separate administration, 10 days (tramadol study)” value is “did not alter the pain threshold”.
As for `COc1ccc2c3c1O[C@H]1C(=O)CC[C@@]4(O)[C@@H](C2)N(C)CC[C@]314` [oxycodone, reference compound], the “analgesic activity on separate administration (oxycodone study)” value in assay [1] (setting [7]) is “showed no analgesic activity”. For the same compound, the “analgesic activity on separate administration, 7 days (oxycodone study)” value in assay [2] (setting [10]) is listed as “did not exhibit analgesic activity”.
As for `COc1cccc(C2(O)CCCCC2CN(C)C)c1` (stereo not shown) [tramadol, reference compound], the “analgesic activity on separate administration (tramadol study)” value in assay [1] (setting [7]) is on record as “did not exhibit analgesic activity”. Besides, in assay [2] (setting [10]), the “pain threshold on separate administration, 10 days (tramadol study)” value was “insignificantly intensified the threshold for mechanical nociceptive stimuli from days 6 to 10”.

The values above are taken from US9101577B2, “Analgesic pharmaceutical composition for oral administration” (Warszawski Uniwersytet Medyczny, priority 2011, dated 2015).
